Measured values from patent US4723004A, “Cephem compounds” (priority 1984, dated 1988).
“Also recorded” adds a separate entry of the source. Read-outs that look alike come from different tables or passages of the source. Each block holds one molecule with its values, some of them ahead of it.

Assays:
[1] = system: Alcaligenes faecalis IFO 13111; experiment: MIC, antibacterial spectrum (nutrient agar); format: cell-based; settings: IFO13111, nutrient agar pH 7.0, 10^6 CFU/ml, sodium salt, read-out: Minimal inhibitory concentration
From the text: (§1) | Culture medium: Nutrient agar (pH 7.0) concentration of microorganisms | inoculated: 10^6 CFU (colony forming unit)/ml.

[2] = system: Bacillus megaterium IFO 12108; experiment: MIC, antibacterial spectrum (nutrient agar); format: cell-based; settings: Priestia megaterium, IFO12108, nutrient agar pH 7.0, 10^6 CFU/ml, sodium salt, read-out: Minimal inhibitory concentration
From the text: as §1

[3] = system: Bacillus subtilis NIHJ PCI219; experiment: MIC, antibacterial spectrum (nutrient agar); format: cell-based; settings: NIHJPCI219, nutrient agar pH 7.0, 10^6 CFU/ml, sodium salt, read-out: Minimal inhibitory concentration
From the text: as §1

[4] = system: Escherichia coli NIHJ JC-2; experiment: MIC, antibacterial spectrum (nutrient agar); format: cell-based; settings: NIHJJC2, nutrient agar pH 7.0, 10^6 CFU/ml, sodium salt, read-out: Minimal inhibitory concentration
From the text: as §1

[5] = system: Klebsiella pneumoniae IFO 3317; experiment: MIC, antibacterial spectrum (nutrient agar); format: cell-based; settings: IFO3317, nutrient agar pH 7.0, 10^6 CFU/ml, sodium salt, read-out: Minimal inhibitory concentration
From the text: as §1

[6] = system: Proteus mirabilis ATCC 21100; experiment: MIC, antibacterial spectrum (nutrient agar); format: cell-based; settings: ATCC21100, nutrient agar pH 7.0, 10^6 CFU/ml, sodium salt, read-out: Minimal inhibitory concentration
From the text: as §1

[7] = system: Proteus vulgaris IFO 3988; experiment: MIC, antibacterial spectrum (nutrient agar); format: cell-based; settings: IFO3988, nutrient agar pH 7.0, 10^6 CFU/ml, sodium salt, read-out: Minimal inhibitory concentration
From the text: as §1

[8] = system: Pseudomonas aeruginosa IFO 3080; experiment: MIC, antibacterial spectrum (nutrient agar); format: cell-based; settings: IFO3080, nutrient agar pH 7.0, 10^6 CFU/ml, sodium salt, read-out: Minimal inhibitory concentration
From the text: as §1

[9] = system: Salmonella typhimurium IFO 12529; experiment: MIC, antibacterial spectrum (nutrient agar); format: cell-based; settings: Salmonella enterica, nutrient agar pH 7.0, 10^6 CFU/ml, sodium salt, read-out: Minimal inhibitory concentration
From the text: as §1

[10] = system: Serratia marcescens IFO 12648; experiment: MIC, antibacterial spectrum (nutrient agar); format: cell-based; settings: IFO12648, nutrient agar pH 7.0, 10^6 CFU/ml, sodium salt, read-out: Minimal inhibitory concentration
From the text: as §1

[11] = system: Staphylococcus aureus FDA 209P; experiment: MIC, antibacterial spectrum (nutrient agar); format: cell-based; settings: FDA209P, nutrient agar pH 7.0, 10^6 CFU/ml, sodium salt, read-out: Minimal inhibitory concentration
From the text: as §1

[12] = system: Escherichia coli PG8; experiment: Stability to β-lactamases, disc method, non-added control (Table 2); format: cell-based; settings: PG8, read-out: Diameter of growth inhibition zone (by the disc method)
Protocol: (§2) Note: Used concentration of the compound; 100 µg/ml Employed strain;
(§3) Escherichia coli PG8 Culture medium; Nutrient agar medium (pH 7.0)
(§4) containing diaminopimelic acid (20 mg/l)

[13] = target: T1, Penicillinase (Bacillus cereus, UniProt P10424); experiment: Stability to β-lactamases, disc method, penicillinase (Table 2); format: cell-based; settings: penicillinase 0.048 unit/ml; E. coli PG8; compound 100 g/ml (so in the source)
T1 construct: purchased Calbio Chemical, U.S.A; host or cells: Bacillus cereus
Protocol: as §2, §3, §4
(Note 2) Penicillinase derived from Bacillus cereus (produced by Calbio
Chemical, U.S.A.)0.048 unit/ml.

[14] = target: T2, Cephalosporinase (Enterobacter cloacae, UniProt P05364); experiment: Stability to β-lactamases, disc method, cephalosporinase (Table 2); format: cell-based; settings: cephalosporinase 0.025 unit/ml; E. coli PG8; compound 100 g/ml (so in the source)
T2 construct: host or cells: Enterobacter cloacae
Protocol: as §2, §3, §4
(Note 3) Cephalosprinase is derived from Enterobacter cloacae, 0.025

[15] = Acute toxicity, subcutaneous administration to mice; format: in vivo; settings: for toxicity: conclusion from 1 g/kg s.c. in mice; for death: mice, subcutaneous, 1 g/kg, sodium salt
[16] = system: β-lactamases; experiment: Stability to β-lactamases (statement in words); format: cell-based
[17] = system: gram-positive bacteria; experiment: Antibacterial activity against gram-positive bacteria (statement in words); format: cell-based
[18] = system: gram-negative bacteria; experiment: Antibacterial activity against gram-negative bacteria (statement in words); format: cell-based
[19] = Solubility; settings: sodium salt
[20] = system: Pseudomonas aeruginosa C141; experiment: Stability to β-lactamases, disc method, non-added control (Table 5); format: cell-based; settings: read-out: Diameter of growth inhibition zone (by the disc method); for zone of inhibition at 100 µg/mL: P. aeruginosa C141, other compounds 100 μg/ml
Protocol: (§5) Concentration of the compound (II) 1000 μg/ml
(§6) Concentration of the other compounds: 100 μg/ml
(§7) Strain used: Pseudomonas aeruginosa C141
(§8) Culture medium: Nutrient agar medium (pH 7.0) containing diaminopimeric

[21] = target: T1, Penicillinase; experiment: Stability to β-lactamases, disc method, penicillinase (Table 5); format: cell-based; settings: penicillinase 0.048 unit/ml, P. aeruginosa C141
Protocol: as §5, §6, §7, §8
(Note 3) Penicillinase (Calbio Chemical, U.S.A.) derived from Bacillus

[22] = target: T2, Cephalosporinase; experiment: Stability to β-lactamases, disc method, cephalosporinase (Table 5); format: cell-based; settings: cephalosporinase 0.025 unit/ml, P. aeruginosa C141
Protocol: as §5, §6, §7, §8
(Note 4) The enzyme is derived from Enterobacter cloacae, 0.025 unit/ml.

[23] = Stability in aqueous solution; format: physicochemical; settings: for Stability: hydrochloride(s)
[24] = system: Escherichia coli CP 13; experiment: Antibacterial spectrum, growth inhibition zone (Table 4); format: cell-based; settings: CP13, E. coli CP 13, compound (II) 1000 μg/ml, pH 7.0, sodium salt, read-out: Diameter of growth inhibition zone
Protocol: as §8
(§9) Concentration of the compound (II): 1000 μg/ml.

[25] = system: Pseudomonas aeruginosa C141; experiment: as above; format: cell-based; settings: compound (II) 1000 μg/ml, pH 7.0, sodium salt, read-out: Diameter of growth inhibition zone
Protocol: as §8, §9

[26] = system: Staphylococcus aureus FDA 209P; experiment: as above; format: cell-based; settings: FDA209P, compound (II) 1000 μg/ml, pH 7.0, sodium salt, read-out: Diameter of growth inhibition zone
Protocol: as §8, §9

T1 sequence (P10424 44-306): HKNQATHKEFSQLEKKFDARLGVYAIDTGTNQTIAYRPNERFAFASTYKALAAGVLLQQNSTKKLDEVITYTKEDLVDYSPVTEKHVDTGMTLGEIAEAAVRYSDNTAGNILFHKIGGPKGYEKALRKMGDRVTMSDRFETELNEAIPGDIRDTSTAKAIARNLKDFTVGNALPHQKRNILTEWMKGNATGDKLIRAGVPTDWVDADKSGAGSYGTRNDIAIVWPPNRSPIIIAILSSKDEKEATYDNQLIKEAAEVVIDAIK
T2 sequence (P05364 21-381): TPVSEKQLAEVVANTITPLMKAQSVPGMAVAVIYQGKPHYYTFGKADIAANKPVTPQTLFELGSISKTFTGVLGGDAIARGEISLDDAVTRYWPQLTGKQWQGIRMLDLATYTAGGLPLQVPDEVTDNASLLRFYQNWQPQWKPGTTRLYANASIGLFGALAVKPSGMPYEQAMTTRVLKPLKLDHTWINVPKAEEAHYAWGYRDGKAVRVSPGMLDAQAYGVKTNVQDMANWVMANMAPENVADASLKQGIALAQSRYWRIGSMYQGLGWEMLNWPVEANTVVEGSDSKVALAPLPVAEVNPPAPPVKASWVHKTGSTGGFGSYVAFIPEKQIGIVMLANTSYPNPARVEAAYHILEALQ

SMILES: NC(CCCC(=O)N[C@]1(NC=O)C(=O)N2C(C(=O)O)=C(CO)CSC21)C(=O)O (stereo partly drawn) [7-FA-DCPC, 7-formylamino-deacetylcephalosporin C]
- MIC [1]: 12.5 µg/mL
- MIC [2]: 100 µg/mL
- MIC [3]: 100 µg/mL
- MIC [4]: 50 µg/mL
- MIC [5]: 50 µg/mL
- MIC [6]: 12.5 µg/mL
- MIC [7]: 25 µg/mL
- MIC [8]: 100 µg/mL
- MIC [9]: 25 µg/mL
- MIC [10]: 25 µg/mL
- MIC [11]: 100 µg/mL
- zone of inhibition at 100 µg/mL [12]: 23 mm
- Diameter of growth inhibition zone (by the disc method) [13]: 23 mm
- Diameter of growth inhibition zone (by the disc method) [14]: 23 mm
- toxicity [15]: low toxicity
- death [15]: no death was observed
- Stability to β-lactamases [16]: stable to various β-lactamases
- Stability to β-lactamases ([16]; listed as compound (IV)): stable to β-lactamase producing strains
- antibacterial activity [17]: exhibits antibacterial activity
- antibacterial activity ([17]; listed as compound (IV)): exhibits antimicrobial activity
- antibacterial activity [18]: exhibits antibacterial activity
- antibacterial activity ([18]; listed as compound (IV)): exhibits antimicrobial activity
- Solubility ([19]; diethyl ether and ethyl acetate): Sparingly soluble
- Solubility ([19]; methanol): Soluble
- Solubility ([19]; water): Readily soluble

SMILES: CO[C@@]1(NC(=O)CCC[C@@H](N)C(=O)O)C(=O)N2C(C(=O)O)=C(COC(N)=O)CS[C@@H]21 [CMC, Cephamycin C]
- zone of inhibition at 100 µg/mL [12]: 30 mm
- Diameter of growth inhibition zone (by the disc method) [13]: 30 mm
- Diameter of growth inhibition zone (by the disc method) [14]: < 8 mm
- zone of inhibition at 100 µg/mL [20]: 27.5 mm
- Diameter of growth inhibition zone (by the disc method) ([21]; other compounds 100 μg/ml): 27.5 mm
- Diameter of growth inhibition zone (by the disc method) ([22]; other compounds 100 μg/ml): < 8 mm

SMILES: N[C@H](CCCC(=O)N[C@@H]1C(=O)N2C(C(=O)O)=C(CO)CS[C@H]12)C(=O)O [DCPC, deacetylcephalosporin C]
- zone of inhibition at 100 µg/mL [12]: 30 mm
- Diameter of growth inhibition zone (by the disc method) [13]: 30 mm
- Diameter of growth inhibition zone (by the disc method) [14]: < 8 mm
- zone of inhibition at 100 µg/mL [20]: 30 mm
- Diameter of growth inhibition zone (by the disc method) ([21]; other compounds 100 μg/ml): 30 mm
- Diameter of growth inhibition zone (by the disc method) ([22]; other compounds 100 μg/ml): < 8 mm

- Stability ([23]; acidic aqueous solution): Unstable
- Stability ([23]; basic aqueous solution): Unstable
- Stability ([23]; neutral aqueous solution): slightly unstable
SMILES: CC(N)C(=O)NC(CCCNC(=N)N)C(O)CC(=O)OCC1=C(C(=O)O)N2C(=O)[C@@](NC=O)(NC(=O)CCCC(N)C(=O)O)C2SC1 (stereo partly drawn) [TAN-547A]

- Stability ([23]; acidic aqueous solution): Unstable
- Stability ([23]; basic aqueous solution): Unstable
- Stability ([23]; neutral aqueous solution): slightly unstable
SMILES: CC(N)C(=O)NC(C)C(=O)NC(CCCNC(=N)N)C(O)CC(=O)OCC1=C(C(=O)O)N2C(=O)[C@@](NC=O)(NC(=O)CCCC(N)C(=O)O)C2SC1 (stereo partly drawn) [TAN-547B]

- Stability ([23]; acidic aqueous solution): Unstable
- Stability ([23]; basic aqueous solution): Unstable
- Stability ([23]; neutral aqueous solution): slightly unstable
SMILES: CC(N)C(=O)NC(C)C(=O)NC(C)C(=O)NC(CCCNC(=N)N)C(O)CC(=O)OCC1=C(C(=O)O)N2C(=O)[C@@](NC=O)(NC(=O)CCCC(N)C(=O)O)C2SC1 (stereo partly drawn) [TAN-547C]

- Stability ([23]; acidic aqueous solution): Slightly unstable
- Stability ([23]; basic aqueous solution): Unstable
- Stability ([23]; neutral aqueous solution): Slightly unstable
SMILES: CC(N)C(=O)NC(CCCNC(=N)N)C(O)CC(=O)OCC1=C(C(=O)O)N2C(=O)[C@@H](NC(=O)CCCC(N)C(=O)O)C2SC1 (stereo partly drawn) [TAN-547D]

- Stability ([23]; acidic aqueous solution): Slightly unstable
- Stability ([23]; basic aqueous solution): Unstable
- Stability ([23]; neutral aqueous solution): Slightly unstable
SMILES: CC(N)C(=O)NC(C)C(=O)NC(CCCNC(=N)N)C(O)CC(=O)OCC1=C(C(=O)O)N2C(=O)[C@@H](NC(=O)CCCC(N)C(=O)O)C2SC1 (stereo partly drawn) [TAN-547E]

- Stability ([23]; acidic aqueous solution): Slightly unstable
- Stability ([23]; basic aqueous solution): Unstable
- Stability ([23]; neutral aqueous solution): Slightly unstable
SMILES: CC(N)C(=O)NC(C)C(=O)NC(C)C(=O)NC(CCCNC(=N)N)C(O)CC(=O)OCC1=C(C(=O)O)N2C(=O)[C@@H](NC(=O)CCCC(N)C(=O)O)C2SC1 (stereo partly drawn) [TAN-547F]

SMILES: N[C@]1(NC=O)C(=O)N2C(C(=O)O)=C(CO)CSC21 (stereo partly drawn) [compound (II)]
- toxicity [15]: low toxicity
- death [15]: no death was observed
- zone of inhibition at 1000 µg/mL [24]: 11 mm
- zone of inhibition at 1000 µg/mL [25]: 19 mm
- zone of inhibition at 1000 µg/mL [26]: < 8 mm
- zone of inhibition at 1000 µg/mL ([20]; P. aeruginosa C141, compound (II) 1000 μg/ml): 19 mm
- Diameter of growth inhibition zone (by the disc method) ([21]; compound (II) 1000 μg/ml): 19 mm
- Diameter of growth inhibition zone (by the disc method) ([22]; compound (II) 1000 μg/ml): 19 mm
- Stability to β-lactamases [16]: stable to various β-lactamases
- antibacterial activity [18]: exhibits antibacterial activity; also recorded: exhibits antimicrobial activity
- stability in aqueous solution ([23]; compared with a cephem compound which is acetylated (--CH2OCOCH3 at 3-position)): remarkably more stable in aqueous solution
